Experiments:
VEGFR-2 = tested on: VEGFR-2; design: method as in PMID 22153662; details: cited from earlier work
VEGFR-2 kinase = target: T1, VEGFR-2 kinase (Homo sapiens, UniProt P35968); assay: VEGFR-2 inhibition testing (ELISA kit); format: biochemical
T1 construct: purchased
Procedure: Enzyme linked immunosorbent assay (ELISA) technique was applied to human VEGFR-2 ELISA kit to calculate IC50 of all new derivatives against VEGFR-2 kinase. The antibody specific to the enzyme was planted on a 96 well microplate to which different micromolar concentrations of the positive control and the new compounds was added. […] Finally, stop solution (50 µL) was added and the reading was immediately determined at 450 nm. To get the standard curve, the concentrations used were presented on the X-axis and the corresponding absorbances were on the Y-axis.

HepG2 [1] = assay: In vitro antitumor MTT assay, HepG2; format: cell-based, human; details: for IC50: Homo sapiens, HepG2, MTT, mean ± S.D. of three experiments
Procedure: (§1) The antitumor assay was performed against the human cancer cell lines: HepG2, PC3, and MCF-7. The chemicals used in this test were supplied by Sigma-Aldrich with high analytical grade. National Cancer Institute (Cairo, Egypt) was the supplier of the cell lines tested which originally obtained from American Type Culture Collection (ATCC). MTT protocol was applied to quantitatively measure the antiproliferative activity of the new derivatives. In this test, the colour change is attributed to that the yellow tetrazolium bromide (MTT) is converted to formazan derivative which has purple colour. This biochemical reaction occurs only in viable cells by mitochondrial succinate dehydrogenase. The tested cells were initially cultured in RPMI-1640 medium with foetal bovine serum (10%). To the incubated cell, streptomycin (100 µg/mL) and penicillin (100 units/mL) were added in a 5% CO2 incubator at 37 °C. Then seeding of the cells was performed in a 96-well plate under 5% CO2 and at density of 1.0 × 10^4 cells/well at 37 °C for 48 h. Various non-toxic concentrations of the tested candidates were added and the cells were then incubated for further 24 h to the cells treated with the new compounds, MTT solution (20 µL at 5 mg/mL) was added, followed by 4 h incubation. One hundred microlitres of Dimethyl sulfoxide (DMSO) were added into each well to dissolve the purple formazan formed which is colorimetrically absorbed at 570 nm using a plate reader (EXL 800, USA). Finally, the percentages of cell viability was obtained as (A570 of treated samples/A570 of untreated sample) × 100.

PC3 = assay: In vitro antitumor MTT assay, PC3; format: cell-based, human; details: for IC50: Homo sapiens, PC-3, MTT, mean ± S.D. of three experiments
Procedure: as §1

MCF-7 = assay: In vitro antitumor MTT assay, MCF-7; format: cell-based, human; details: for IC50: Homo sapiens, MCF7, MTT, mean ± S.D. of three experiments
Procedure: as §1

WI-38 = assay: Cytotoxicity against normal lung fibroblasts (MTT); format: cell-based; details: normal human lung fibroblasts
Procedure: as §1
Of note, the cytotoxicity against normal human lung fibroblasts cell line (WI-38) were examined for the nine selected compounds.

[2] = tested on: human cancer cell lines HepG2, PC3, MCF-7; assay: In vitro antitumor MTT assay, panel of HepG2, PC3 and MCF-7; format: cell-based; details: range over HepG2, PC3 and MCF-7, read-out: IC50 against human cancer cell lines
Procedure: as §1

HepG2 [3] = assay: Effect on cell cycle of HepG2 (PI flow cytometry); format: cell-based, human; details: at its IC50
Procedure: The protocol reported by Wang et al.[35] was followed to determine the effect of 15d on cell cycle of HepG2. The cancer cells (2 × 10^5 cells) were seeded and incubated in each of six-well plates for 24 h. The cells were further incubated at 37 °C and 5% CO2 after addition of foetal bovine serum (FBS, 10%). The medium was replaced by DMSO solution (1% v/v) in which 9.6 µg of compound 15d was dissolved. Well plates were then incubated for 48 h and then rinsed with cold phosphate-buffered saline (PBS), fixed with ethanol (70%) and washed again with PBS. DNA fluorochrome propidium iodide (PI) was used to stain the cells which were then kept for 15 min at 37 °C. FACS Calibre flow cytometer was used to analyse the samples.

HepG2 [4] = assay: Effect on apoptosis rate of HepG2 (Annexin V-FITC/PI); format: cell-based, human
Procedure: Apoptosis ratio of HepG2 treated with 9.6 µg of compound 15d in comparison with untreated HepG2 cells was calculated according to the reported method using Annexin V fluorescein isothiocyanate (V-FITC)/PI kit[36].

Caspase-3 = assay: Apoptotic marker level in HepG2, Caspase-3; format: cell-based, human; details: HepG2, at IC50, 24 h; control 49.6274
Procedure: (§2) HepG2 cells were cultured and treated with compound 15d for 24 h. after that cells were collected and washed with PBS, then were collected and lysed by adding it to the extraction buffer containing protease inhibitors (1 ml per 1 × 10^6 cells.) then the lysate was diluted immediately before the assay. Caspase-3, BAX, Bcl-2, and p53 level was measured by using Quantikine-Human active kits (R&D Systems, Inc. Minneapolis, USA) according to the manufacturer protocols.

BAX = assay: Apoptotic marker level in HepG2, BAX; format: cell-based, human; details: HepG2, at IC50, 24 h; control 40.62
Procedure: as §2

Bcl-2 = assay: Apoptotic marker level in HepG2, Bcl-2; format: cell-based, human; details: HepG2, at IC50, 24 h; control 5.761
Procedure: as §2

P53 = assay: Apoptotic marker level in HepG2, p53; format: cell-based, human; details: HepG2, at IC50, 24 h; control 42.84
Procedure: as §2

HER2 = target: T2, HER2 (Homo sapiens, UniProt P04626); assay: Multi-kinase assay (HTRF), HER2; format: biochemical
T2 construct: purchased Sigma
T2 sequence (P04626 23-1255): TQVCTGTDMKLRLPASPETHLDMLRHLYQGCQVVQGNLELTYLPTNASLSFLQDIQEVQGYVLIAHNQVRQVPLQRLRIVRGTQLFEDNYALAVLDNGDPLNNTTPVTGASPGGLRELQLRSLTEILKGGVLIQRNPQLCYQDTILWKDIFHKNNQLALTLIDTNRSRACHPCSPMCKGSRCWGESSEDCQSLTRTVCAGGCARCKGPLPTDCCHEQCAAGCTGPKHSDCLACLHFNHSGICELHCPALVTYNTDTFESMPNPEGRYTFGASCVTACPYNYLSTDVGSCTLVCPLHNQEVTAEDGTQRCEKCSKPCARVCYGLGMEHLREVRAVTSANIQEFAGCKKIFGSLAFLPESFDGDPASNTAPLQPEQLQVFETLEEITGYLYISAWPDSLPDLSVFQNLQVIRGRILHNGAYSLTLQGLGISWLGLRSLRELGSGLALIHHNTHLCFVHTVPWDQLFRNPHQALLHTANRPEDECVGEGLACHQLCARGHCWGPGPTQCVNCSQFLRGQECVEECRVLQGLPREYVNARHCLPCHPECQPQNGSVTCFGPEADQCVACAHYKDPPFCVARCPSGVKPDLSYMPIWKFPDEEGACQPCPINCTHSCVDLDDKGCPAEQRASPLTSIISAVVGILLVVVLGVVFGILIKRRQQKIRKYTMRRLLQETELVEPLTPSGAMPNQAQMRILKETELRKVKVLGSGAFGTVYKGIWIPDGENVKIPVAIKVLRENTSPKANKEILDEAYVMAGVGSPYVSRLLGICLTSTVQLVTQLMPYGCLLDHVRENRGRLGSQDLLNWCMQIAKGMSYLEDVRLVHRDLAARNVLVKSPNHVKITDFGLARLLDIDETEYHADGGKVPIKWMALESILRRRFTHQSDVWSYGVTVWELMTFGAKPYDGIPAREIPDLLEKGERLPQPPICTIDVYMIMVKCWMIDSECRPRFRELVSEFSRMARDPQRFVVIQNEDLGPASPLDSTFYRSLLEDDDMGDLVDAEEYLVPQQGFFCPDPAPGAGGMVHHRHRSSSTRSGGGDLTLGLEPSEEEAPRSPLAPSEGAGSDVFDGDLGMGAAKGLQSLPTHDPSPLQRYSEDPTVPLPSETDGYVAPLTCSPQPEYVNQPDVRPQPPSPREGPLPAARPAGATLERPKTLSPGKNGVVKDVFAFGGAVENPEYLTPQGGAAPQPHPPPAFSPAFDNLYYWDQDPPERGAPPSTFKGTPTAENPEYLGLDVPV
Procedure: (§3) Different kinases and ATP were obtained from Sigma. The specified kinase and its substrate was incubated with compound for 5 min in buffer solution to start the enzymatic reaction; ATP was then added to the reaction mixture and was maintained for 30 min at room temperature.

FGFR = assay: Multi-kinase assay (HTRF), FGFR; format: biochemical
Procedure: as §3

T1 sequence (P35968 20-1356): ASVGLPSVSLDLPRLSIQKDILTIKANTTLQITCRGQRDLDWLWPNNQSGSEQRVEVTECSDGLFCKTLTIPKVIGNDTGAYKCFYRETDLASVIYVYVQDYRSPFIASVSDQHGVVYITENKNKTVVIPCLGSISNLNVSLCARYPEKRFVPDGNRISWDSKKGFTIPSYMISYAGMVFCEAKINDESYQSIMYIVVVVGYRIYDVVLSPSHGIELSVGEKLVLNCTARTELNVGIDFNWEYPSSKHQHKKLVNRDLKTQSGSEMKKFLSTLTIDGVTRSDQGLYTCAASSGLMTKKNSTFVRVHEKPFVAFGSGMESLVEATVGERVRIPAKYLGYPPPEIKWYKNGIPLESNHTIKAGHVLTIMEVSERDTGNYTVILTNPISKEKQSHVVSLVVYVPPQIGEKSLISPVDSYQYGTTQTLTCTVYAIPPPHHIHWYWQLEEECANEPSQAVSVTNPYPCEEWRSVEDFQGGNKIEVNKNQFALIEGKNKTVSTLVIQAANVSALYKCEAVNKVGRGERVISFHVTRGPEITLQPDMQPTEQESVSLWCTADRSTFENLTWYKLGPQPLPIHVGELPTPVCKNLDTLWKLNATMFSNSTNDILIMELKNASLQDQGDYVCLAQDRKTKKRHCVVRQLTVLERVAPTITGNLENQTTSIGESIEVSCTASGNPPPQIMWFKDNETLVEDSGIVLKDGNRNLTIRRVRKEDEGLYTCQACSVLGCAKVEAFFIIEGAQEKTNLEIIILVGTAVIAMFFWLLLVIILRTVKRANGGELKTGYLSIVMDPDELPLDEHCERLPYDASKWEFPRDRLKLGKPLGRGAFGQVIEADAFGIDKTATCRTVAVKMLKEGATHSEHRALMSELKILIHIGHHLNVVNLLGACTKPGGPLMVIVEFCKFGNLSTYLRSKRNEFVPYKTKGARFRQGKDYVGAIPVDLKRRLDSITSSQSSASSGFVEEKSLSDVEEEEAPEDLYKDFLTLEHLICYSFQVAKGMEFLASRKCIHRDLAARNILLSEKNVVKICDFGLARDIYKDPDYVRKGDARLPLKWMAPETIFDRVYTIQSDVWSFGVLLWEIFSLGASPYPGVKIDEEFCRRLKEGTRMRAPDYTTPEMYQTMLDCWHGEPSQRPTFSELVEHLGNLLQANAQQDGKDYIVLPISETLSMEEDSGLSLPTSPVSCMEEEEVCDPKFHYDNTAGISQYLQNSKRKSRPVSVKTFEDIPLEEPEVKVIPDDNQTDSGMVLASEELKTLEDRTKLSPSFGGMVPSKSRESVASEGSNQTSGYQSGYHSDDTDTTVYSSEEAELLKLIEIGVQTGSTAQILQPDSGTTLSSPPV

Row | IC50 (VEGFR-2 kinase) [µM] | IC50 (HepG2 [1]) [µM] | IC50 (PC3) [µM] | IC50 (MCF-7) [µM] | melting point [°C] | Structure (SMILES) | IC50 (WI-38) [µM] | also measured
2 | 0.0864 ± 0.00176 | 17.4 ± 1.54 | 25.6 ± 2.31 | 19.9 ± 1.79 | 249 to 250 | O=C(Nc1ccc(Oc2nc(Cl)nc3ccccc23)cc1)c1ccc(Cl)cc1 [Compound 15b, 4-Chloro-N-(4-((2-chloroquinazolin-4-yl)oxy)phenyl)benzamide] | 233 ± 2.39 | potency relative to sorafenib potency, HepG2 (HepG2 [1]; fraction of sorafenib potency): 0.74; potency relative to sorafenib potency, PC3 (PC3; fraction of sorafenib potency): 0.76; potency relative to sorafenib potency, MCF-7 (MCF-7; fraction of sorafenib potency): 0.73; IC50 [2]: 17.4 to 47.1 µM
3 | 0.0942 ± 0.00153 |  |  |  | 214 to 215 | CCCCNC(=O)Nc1ccc(Oc2nc(Cl)nc3ccccc23)cc1 [Compound 14b, 1-Butyl-3-(4-((2-chloroquinazolin-4-yl)oxy)phenyl)urea] |  | 
4 | 0.114 ± 0.00283 |  |  |  | 264 to 265 | O=C(Nc1ccc(Oc2nc3ccccc3nc2Cl)cc1)c1ccc(Cl)cc1 [Compound 20b, 4-Chloro-N-(4-((3-chloroquinoxalin-2-yl)oxy)phenyl)benzamide] |  | 
5 | 0.108 ± 0.00225 |  |  |  | 258 to 259 | O=C(Nc1ccc(Oc2nc3ccccc3nc2Cl)cc1)c1ccccc1 [Compound 20a, N-(4-((3-Chloroquinoxalin-2-yl)oxy)phenyl)benzamide] |  | 
6 | 0.0936 ± 0.00182 |  |  |  | 248 to 249 | O=C(Nc1ccccc1)Nc1ccc(Oc2nc3ccccc3nc2Cl)cc1 [Compound 19a, 1-(4-((3-Chloroquinoxalin-2-yl)oxy)phenyl)-3-phenylurea] |  | 
7 | 0.107 ± 0.002 |  |  |  | 163 to 164 | CCCCNC(=O)Nc1ccc(Oc2ccccc2[N+](=O)[O-])cc1 [Compound 22b, 1-Butyl-3-(4-(2-nitrophenoxy)phenyl)urea] |  | 
8 | 0.119 ± 0.00316 |  |  |  | 160 to 161 | O=C(Nc1ccc(Oc2ccccc2[N+](=O)[O-])cc1)c1cccnc1 [Compound 23c, N-(4–(2-Nitrophenoxy)phenyl)nicotinamide] |  | 
9 | 0.0696 ± 0.00116 | 221 ± 11.4 | > 300 | 246 ± 13.6 | 219 to 220 | O=C(Nc1ccc(Oc2nc3ccccc3nc2Cl)cc1)c1cccnc1 [Compound 20d, N-(4-((3-Chloroquinoxalin-2-yl)oxy)phenyl)nicotinamide] | 460.7 ± 4.04 | 
10 | 0.0752 ± 0.00157 | 73.4 ± 5.95 | 84.4 ± 6.68 | 105 ± 7.57 | 227 to 228 | CCCCNC(=O)Nc1ccc(Oc2nc3ccccc3nc2Cl)cc1 [Compound 19b, 1-Butyl-3-(4-((3-chloroquinoxalin-2-yl)oxy)phenyl)urea] | 230 ± 2.51 | 
11 | 0.0673 ± 0.00154 | 34.6 ± 2.82 | 30.3 ± 2.56 | 47.1 ± 3.59 | 244 to 245 | O=C(Nc1ccc(Oc2nc(Cl)nc3ccccc23)cc1)c1ccccc1 [Compound 15a, N-(4-((2-Chloroquinazolin-4-yl)oxy)phenyl)benzamide] | 250 ± 2.51 | IC50 [2]: 17.4 to 47.1 µM
12 | 0.105 ± 0.0025 |  |  |  | 169 to 170 | O=C(Nc1ccc(Oc2ccccc2[N+](=O)[O-])cc1)c1cccc(Cl)c1 [Compound 23b, 3-Chloro-N-(4–(2-nitrophenoxy)phenyl)benzamide] |  | 
13 | 0.06 ± 0.00145 | 24.1 ± 2.12 | 40.9 ± 3.46 | 33.4 ± 2.92 |  | O=C(Nc1ccc(Oc2nc(Cl)nc3ccccc23)cc1)c1cccnc1 [Compound 15d, N-(4-((2-Chloroquinazolin-4-yl)oxy)phenyl)nicotinamide] | 221 ± 2.55 | cell cycle phases in which growth of HepG2 is stopped (HepG2 [3]): both G2/M and pre G1 phases; % Apoptosis Late (HepG2 [4]; HepG2, at IC50, control 0.33): 7.13%; % Apoptosis Early (HepG2 [4]; HepG2, at IC50, control 0.87): 5.33%; % Necrosis (HepG2 [4]; HepG2, at IC50, control 1.17): 2.35%; Total (apoptosis and necrosis) (HepG2 [4]; HepG2, at IC50, control 2.37): 14.81%; fold increase in apoptosis of HepG2 (HepG2 [4]; at IC50, versus control): 10 folds; apoptosis rate of HepG2 (HepG2 [4]; at IC50, control […]): 12.46%; Casp3 level (Caspase-3): 561.427 pg/mL; BAX level (BAX): 395.04 pg/mL; Bcl-2 level (Bcl-2): 1.385 pg/mL; P53 level (P53): 415.027 pg/mL; IC50 (HER2): 0.253 ± 0.0016 µM; IC50 (FGFR): 0.381 ± 0.0018 µM; IC50 [2]: 17.4 to 47.1 µM
14 | 0.0748 ± 0.00167 | 153 ± 10.8 | 221 ± 12.9 | 234 ± 13.2 | 197 to 198 | O=C(Nc1ccc(Oc2ccccc2[N+](=O)[O-])cc1)c1ccccc1 [Compound 23a, N-(4–(2-Nitrophenoxy)phenyl)benzamide] | 758.2 ± 5.15 | 
15 | 0.124 ± 0.00378 |  |  |  | 175 to 176 | O=C(Nc1ccccc1)Nc1ccc(Oc2ccccc2[N+](=O)[O-])cc1 [Compound 22a, 1-(4-(2-Nitrophenoxy)phenyl)-3-phenylurea] |  | 
16 |  |  |  |  |  | C#Cc1cccc(Nc2ncnc3cc(OCCOC)c(OCCOC)cc23)c1 [Erlotinib, reference compound] |  | IC50 (FGFR): 0.034 ± 0.00092 µM
17 | 0.0866 ± 0.00175 | 144 ± 9.51 | 157 ± 10 | 135 ± 9.02 | 243 to 244 | O=C(Nc1ccc(Oc2nc3ccccc3nc2Cl)cc1)c1cccc(Cl)c1 [Compound 20c, 3-Chloro-N-(4-((3-chloroquinoxalin-2-yl)oxy)phenyl)benzamide] | 402.9 ± 3.26 | 
18 |  | 12.9 ± 0.85 | 19.4 ± 1.34 | 14.5 ± 1.68 |  | CNC(=O)c1cc(Oc2ccc(NC(=O)Nc3ccc(Cl)c(C(F)(F)F)c3)cc2)ccn1 [Sorafenib, reference compound] |  | 
19 | 0.0671 ± 0.00107 | 41.5 ± 3.6 | 50.7 ± 4.36 | 58.3 ± 4.87 | 236 to 237 | O=C(Nc1ccccc1)Nc1ccc(Oc2nc(Cl)nc3ccccc23)cc1 [Compound 14a, 1-(4-((2-Chloroquinazolin-4-yl)oxy)phenyl)-3-phenylurea] | 235 ± 2.43 | 
20 |  | 14.6 ± 1.1 | 16.3 ± 1.1 | 12.4 ± 0.74 |  | COc1cccc2c1C(=O)c1c(O)c3c(c(O)c1C2=O)C[C@@](O)(C(=O)CO)C[C@@H]3O[C@H]1C[C@H](N)[C@H](O)[C@H](C)O1 [Doxorubicin, reference compound] |  | 
21 | 0.0652 ± 0.00136 | 50.4 ± 4.39 | 56 ± 1.9 | 62.7 ± 5.12 | 229 to 230 | O=C(Nc1ccc(Oc2nc(Cl)nc3ccccc23)cc1)c1cccc(Cl)c1 [Compound 15c, 3-Chloro-N-(4-((2-chloroquinazolin-4-yl)oxy)phenyl)benzamide] | 236 ± 2.39 | 
